Assay results as given in patent US20260151457A1, “Peptides and Fragments for Treating Diabetes and Associated Metabolic Diseases” (Betavive Ltd., priority 2024, published 2026).
“Also recorded” adds a separate entry of the source.

Legend:
C57BL/6 STZ mice = test: Fasting blood glucose in STZ-induced diabetic C57BL/6 mice treated with IGF-2; assay type: in vivo; details: for Fasting glucose levels: individual mice per block
Description: C57BL/6 mice male 8-10 weeks old, housed under conventional conditions and allowed laboratory chow and water ad libitum, were used in the experiments described below in Examples 3-4. Within each experiment, animals were matched by age and weight (20-24 g) and randomly divided into groups to receive different treatments. Diabetes was induced by one or more doses of streptozotocin (STZ).
Briefly, animals received intraperitoneally (i.p.) 100 mg/kg (b.w.) STZ (Cayman Chemical, Ann Arbor, MI) dissolved in citrate buffer on pH 4.5 (this procedure was repeated if needed). Clinical diabetes was defined by hyperglycemia (blood glucose levels >300 mg/dl in fasted animals). Fasting blood glucose levels were measured three times per week and samples were taken from the tail tip after starvation for 6 hours throughout the experiment.
Fasting blood glucose levels (mg/dL) were determined using the Accu-Chek Performa glucometer (Roche Diagnostics, Mannheim, Germany). After approximately two weeks of stable hyperglycemia, C57BL/6 STZ mice received exogenous injections of recombinant human IGF-2 (0.3-12 mg/kg/day injection) intraperitoneally for 5-10 consecutive days. During post-treatment follow-up period and upon termination, mice were tested for: fasting glucose, body weight, glucose tolerance test (IPGTT), serum C-peptide level, serum insulin level, and full blood and histological analysis (CBC, Chemistry, Insulin IHC and H&E).

[1] = Blood concentration of IGF-2 after 40 μg intraperitoneal injection (ELISA); assay type: in vivo, mouse; details: 240 minute time frame
Description: Without being bound by this theory, it is believed that IGF-2 binding proteins may initially inactivate the biological activity of free IGF-2. And over time, the bond between IGF-2 and the binding protein may be released, increasing the bioavailability of IGF-2 and leading to a longer term effective treatment.

STZ-treated mice = test: Short term effects of a single IGF-2 injection on glucose and IGF-2 levels in STZ-treated mice; assay type: in vivo
Description: More specifically, the top panel illustrates the drop in glucose blood levels in three STZ-treated mice after receiving a 800 μg/kg/day dose of IGF-2 over a 240 minute time course. […] IGF-2 is part of a complex system comprising IGF-1 and IGF-2 along with binding proteins, proteases and other interacting molecules. A single 800 μg/kg dose of IGF-2 injected intraperitoneally lowers hyperglycemic blood glucose levels of 300-500 mg/dl to a normal level (100-200 mg/dL) for periods of over four hours. Normoglycemia is maintained while total serum IGF-2 is reduced to very low levels. […] Without being bound by this theory, it is believed that a slow release of IGF-2 from a serum complex can maintain normal blood glucose levels.

db/db mice = test: Histopathology and immunohistochemistry of pancreas islet cells in db/db mice treated with IGF-2; assay type: in vivo
Description: FIG. 27 provides results of histopathology and immunohistochemical studies showing the number of pancreas islet cells that test positive for insulin (left panel) and glucagon (right panel) in db/db mice. In this experiment, one group of db/db mice was injected with 12000 μg/kg of IGF-2 on each of 70 consecutive days, a second group of db/db mice was injected with saline, and a third group of db/db mice was a naïve control group. The mice were sacrificed for pathology 70 days after the end of the initial 70 day treatment.
In this experiment, one group of db/db mice (labeled X4) was injected with 12000 μg/kg of IGF-2 on each of 70 consecutive days, a second group of db/db mice (labeled X1) was injected with 3000 μg/kg of IGF-2 on each of 70 consecutive days, and a third group of db/db mice (labeled control) was injected with saline. The mice were sacrificed for pathology 70 days after the end of the initial 70 day treatment. […] The control panels show a positive stain for insulin, which increases in intensity in the 3000 μg/kg/day mice, and increases again in intensity in the 12,000 μg/kg/day mice.

β-MIN6 cells = test: Cell count (proliferation) of β-MIN6 cells; assay type: cell-based, mouse; details: 5 nM, 20 nM, 80 nM, 1 week treatment
Description: β-MIN6 cells serve as an in vitro model of mouse pancreatic islets. β-MIN6 cells were used as an in vitro model to measure the effects of treatment with IGF-2.

STZ-treated mouse islets = test: MTT viability of STZ-treated mouse islets; assay type: cell-based; details: increasing concentrations
Description: Yellow dye MTT is converted to a purple dye by mitochondrial reductase in viable cells. Therefore, the amount of purple dye present determined by measuring optical density of cells at 570 nm serves as a measurement of cell viability.

[2] = tested on: human pancreatic islet cells; test: Insulin secretion of human pancreatic islet cells in response to a glucose pulse; assay type: cell-based; details: IGF-2 50 nM for four days
Beta-TC-6 cells = test: Insulin secretion assay using Beta-TC-6 cells; assay type: cell-based; details: 2 hours, 500 mM of each peptide, Mouse Insulin ELISA
Description: To evaluate insulin secretion in response to peptide treatment, Beta-TC-6 cells were plated in 96-well culture plates at a density of 8×10^4 cells per well. After 48 hours of incubation, the cells were washed and preincubated in serum-free medium for 1 hour. Following this, cells were treated for 2 hours with 200 μl of serum-free medium supplemented with […] of each peptide. After the treatment period, the induction medium was collected and stored at −80° C. until analysis. Insulin levels in the collected medium were measured using the Mercodia Mouse Insulin ELISA Kit (#10-1247-01) according to the manufacturer's instructions. […] Results appear in FIG. 36.

[3] = average of four STZ mice, daily intraperitoneal 3000 μg/kg/day IGF-2
[4] = single 800 μg/kg dose injected intraperitoneally

insulin-like growth factor 2 [IGF-2]
Hypoglycemia (C57BL/6 STZ mice; 10:1 ratio of dosages, between 3000 μg and 300 μg): did not cause hypoglycemia
Fasting glucose levels after the ten day course of injections ended (C57BL/6 STZ mice; STZ mice F3 and F4, IGF-2 800 μg/kg/day): around 400
Fasting glucose levels (C57BL/6 STZ mice; STZ mice, IGF-2 300 μg/kg/day, initial plus ten additional doses): did not return to a normal range, and long-term results were not observed; also recorded: temporary drop in fasting glucose levels from days 10-25, but the long-term results were similar to the results for Mouse B5
Fasting glucose levels (C57BL/6 STZ mice; STZ mice, IGF-2 800 μg/kg/day, day 0 and ten more times within ten days): returned to a normal range during the ten-day course of treatment with IGF-2, and remained in the normal range until the end of the experiment; also recorded: returned to a normal range during the ten-day course of treatment with IGF-2, and remained in the normal range until STZ was provided again
Blood glucose levels remaining (full or almost full resolution) (C57BL/6 STZ mice; STZ mice, IGF-2 800 μg/kg/day, half the mice (FIGS. 5A, 5B)): ~200 mg/dL
Blood glucose levels remaining (partial improvement) (C57BL/6 STZ mice; STZ mice, IGF-2 800 μg/kg/day, the remaining mice (FIGS. 6A, 6B)): ~400 mg/dL
Fasting glucose levels (C57BL/6 STZ mice; STZ mice, IGF-2 3000 μg/kg/day, 10 day course): returned to a normal range during the ten-day course of treatment with IGF-2, and remained in the normal range until the end of the experiment; also recorded: returned to high levels after the 10 day course treatment with IGF-2 ended; also recorded: initially responded to treatment with a 3000 μg/kg/day dose of IGF-2 but were not permanently cured
Long-term improvements in blood glucose levels (C57BL/6 STZ mice; STZ mice, IGF-2 12,000 μg/kg daily on only 5 consecutive days): long-term improvements in blood glucose levels were not obtained
Blood glucose level reached (normal range) (C57BL/6 STZ mice; [3]): 100 to 200 mg/dL
Time to reduce blood glucose to a normal range (C57BL/6 STZ mice; [3]): 3 to 5 days
Hypoglycemia (C57BL/6 STZ mice; even when the IGF-2 dose was increased to 12,000 μg/kg/day): Hypoglycemia was never observed
Time post treatment that normal blood glucose levels are maintained (C57BL/6 STZ mice; four STZ mice, 10 day course at 3000 μg/kg/day, no additional doses): at least 300 days
Free IGF-2 in the blood (peak) [1]: 1 µg
Peak total concentration of IGF-2 in the blood [1]: about 16 μg
Free IGF-2 levels relative to total IGF-2 (STZ-treated mice; 800 μg/kg dose, 240 minute time course): a small fraction of the total IGF-2 concentration
Blood glucose level reached from hyperglycemic 300-500 mg/dl (STZ-treated mice; [4]): 100 to 200 mg/dL
Period of normal blood glucose level after a single dose (STZ-treated mice; [4]): over four
Increase in the number of insulin-positive cells (db/db mice; 12000 μg/kg on 70 consecutive days, sacrificed 70 days after end of treatment): more than 50%
Insulin positive cells (immunohistochemical staining) (db/db mice; 3000 and 12000 μg/kg on 70 consecutive days): increase in insulin positive cells in a dose-dependent manner
Cell count (cell proliferation) (β-MIN6 cells): increases cell proliferation in a dose-dependent manner
Mouse islet viability (MTT, optical density at 570 nm) (STZ-treated mouse islets): increased in a dose dependent manner
Increase in insulin secretion in response to a glucose pulse compared to untreated cells [2]: ~50%
Insulin secretion compared to the control (Beta-TC-6 cells): enhanced insulin secretion compared to the control
